Columns and labels:
Type in all cases: cell-based, human
[1] = system: focal adhesions in HeLa cells; test: FA area; design: AV areaFA: unit not given here; conditions: HeLa, TLN1-KD, mTLN1 rescue; mean of per-cell averages, Count 12
Method: (§1) HeLa Kyoto cell line was described previously ([Lansbergen et al., 2006]; [Mimori-Kiyosue et al., 2005]). HEK293T cells were purchased from ATCC; culture and transfection of DNA and siRNA into these cell lines was performed as previously described ([van der Vaart et al., 2013]). HaCaT cells were purchased at Cell Line Service (Eppelheim, Germany) and cultured according to manufacturer’s instructions. The cell lines were routinely checked for mycoplasma contamination using LT07-518 Mycoalert assay (Lonza, Switzerland).The identity of the cell lines was monitored by immunofluorescence-staining-based analysis with multiple markers. Blebbistatin was purchased from Enzo Life Sciences and used at 50 μM. […]
For presentation, images were adjusted for brightness and processed by Gaussian blur and Unsharp mask filter using ImageJ 1.47v (NIH). Fluorescence profiles are values measured by line scan analysis in ImageJ, normalized by background average fluorescence, expressed as a factor of the baseline value obtained for individual channel and plotted as a function of maximum length factor of the selection line (distance ratio). Protein clustering at the cell edge is the ratio of the total fluorescence in the first 5 μm from the cell edge to the next 5 μm measured by line scan analysis in ImageJ after thresholding for cell outline marking and out-of-cell region value assigned to zero. […]

[2] = system: KIF21A at the cell edge of HeLa cells; test: Peripheral clustering of KIF21A; conditions: talin1/2-depleted HeLa rescue (Fig 4G); mean, n = 12, SEM 3.66709
Method: as §1, with “μM. Serum starvation in HeLa cells was done for 48 hr and focal adhesion assembly was stimulated by incubation with fetal calf serum-containing medium with or without blebbistatin for 2 hr.” for “μM.”
Fixed samples and corresponding immunofluorescence images were acquired using widefield fluorescence illumination on a Nikon Eclipse 80i or Ni upright microscope equipped with a CoolSNAP HQ2 CCD camera (Photometrics) or a DS-Qi2 camera (Nikon) an Intensilight C-HGFI precentered fiber illuminator (Nikon), ET-DAPI, ET-EGFP and ET-mCherry filters (Chroma), Nikon NIS Br software, Plan Apo VC 100x NA 1.4 oil, Plan Apo Lambda 100X oil NA 1.45 and Plan Apo VC 60x NA 1.4 oil (Nikon) objectives. […]

[3] = system: HeLa cells; test: Cell area, attachment and spreading; design: AV Cell Area: unit not given here
Method: HeLa Kyoto cell line was described previously ([Lansbergen et al., 2006]; [Mimori-Kiyosue et al., 2005]). HEK293T cells were purchased from ATCC; culture and transfection of DNA and siRNA into these cell lines was performed as previously described ([van der Vaart et al., 2013]). HaCaT cells were purchased at Cell Line Service (Eppelheim, Germany) and cultured according to manufacturer’s instructions. The cell lines were routinely checked for mycoplasma contamination using LT07-518 Mycoalert assay (Lonza, Switzerland).The identity of the cell lines was monitored by immunofluorescence-staining-based analysis with multiple markers. Blebbistatin was purchased from Enzo Life Sciences and used at 50 μM. Serum starvation in HeLa cells was done for 48 hr and focal adhesion assembly was stimulated by incubation with fetal calf serum-containing medium with or without blebbistatin for 2 hr. ROCK1 inhibitor Y-27632 was purchased at Sigma-Aldrich and used at 1 or 10 μM. Double stable HeLa cell line expressing GFP-KANK1 and TagRFP-paxillin was made by viral infection. We used a pLVIN-TagRFP-paxillin-based lentivirus and a pQC-GFP-KANK1-based retrovirus packaged in HEK293T cells using respectively Lenti-X HTX packaging and pCL-Ampho vectors. Antibiotic selection was applied to cells 48 hr after infection using 500 μg/ml G418 (Geneticin, Life Technologies) and 1 μg/ml puromycin (InvivoGen).
For presentation, images were adjusted for brightness and processed by Gaussian blur and Unsharp mask filter using ImageJ 1.47v (NIH). Fluorescence profiles are values measured by line scan analysis in ImageJ, normalized by background average fluorescence, expressed as a factor of the baseline value obtained for individual channel and plotted as a function of maximum length factor of the selection line (distance ratio). Protein clustering at the cell edge is the ratio of the total fluorescence in the first 5 μm from the cell edge to the next 5 μm measured by line scan analysis in ImageJ after thresholding for cell outline marking and out-of-cell region value assigned to zero. The results were plotted as percentage of control condition average value. FA counting and area measurement was performed using Analyze Particles under ImageJ on focal adhesion binary mask obtained after Gaussian blur/threshold-based cell outline marking and background subtraction (rolling ball radius, 10 pixels). KANK1/talin colocalization was analyzed using Pearson R value provided by Colocalization Analysis plugin under FiJi-ImageJ and a 3 μm diameter circular ROI centered on talin clusters detected by immunofluorescent staining.

[4] = system: microtubule plus ends in HeLa cells; test: Ratio of microtubule growth rate in the cell center and at the cell edge; conditions: depletion and rescue, EB3-mRFP
Method: nEB3-mRFP dynamics was recorded by 0.5 s interval time lapse TIRF imaging. Microtubule growth was measured using kymographs obtained from EB3-mRFP time lapse image series, plotted and presented as previously described ([van der Vaart et al., 2013]). Ratio of microtubule growth in cell center to periphery was obtained as values for individual cells. Microtubule growth trajectory angle to the cell edge was manually measured in ImageJ using tracks obtained by maximum intensity projection of EB3-mRFP image series.

“GFP-talin1-G1404L: GFP-tagged mouse talin1 with single point mutation G1404L” was tested, and the “AV areaFA” value [1] was 1.146, the “Peripheral clustering of KIF21A, percentage of control, AV, talin rescue” value [2] was 41.905 percentage of control condition average value and the “AV Cell Area” value ([3]; HeLa, TLN1-KD, mTLN1 rescue, mean, Count 13) was 1671.82. The “cell area (in words)” value ([3]; compared to rescue with wild type GFP-talin1) was “slightly increased compared to cells rescued with the wild type GFP-talin1”, the “cell attachment and spreading (in words)” value ([3]; talin1/2-depleted HeLa) was “could fully support cell attachment and spreading” and the “microtubule growth, fold slower at cell margin/edge than in cell center” value [4] was 1.5 fold.

Source: publication PMC4995097, “Talin-KANK1 interaction controls the recruitment of cortical microtubule stabilizing complexes to focal adhesions” (eLife, 2016)
